Test results published in US6355799B1, “Substituted benzene compounds, process for their preparation, and herbicidal and defoliant compositions containing them” (ISK Americas Incorporated, priority 1997, dated 2002).

How the values were obtained:
Assay type in all cases: in vivo
[1] = test system: redroot pigweed (Amaranthus retroflexus, AMARE); assay: Pre-emerge test, greenhouse herbicide activity screening; conditions: pre-emerge, 14 days after application, scale 0-100
Outline: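 Rating: 0–100 visual injury, 14 DAA. Application: acetone, 187 l/ha, 15–1000 g ai/ha, flat-fan track sprayer with nozzle 40–45 cm above soil or canopy. Post-emerge runs used 0.25% v/v surfactant on 2–3 leaf plants.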

[2] = test system: barnyardgrass (Echinochloa crus-galli, ECHCG); assay: as above; conditions: pre-emerge, 14 days after application, scale 0-100
Outline: (§1)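 Plants grown in 10 cm pots of sandy loam mix received acetone-dissolved compounds through a moving flat-fan nozzle. Doses ranged from 15 to 1000 g ai/ha. Pre-emerge pots were seeded one day earlier, post-emerge pots 8–21 days earlier. Fourteen days on, each pot was graded 0–100 for damage.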

[3] = test system: green foxtail (Setaria viridis, SETVI); assay: as above; conditions: pre-emerge, 14 days after application, scale 0-100
Outline: as §1

[4] = test system: ivyleaf morningglory (Ipomoea hederacea, IPOHE); assay: as above; conditions: pre-emerge, 14 days after application, scale 0-100
Outline: as §1

[5] = test system: johnsongrass (Sorghum halepense, SORHA); assay: as above; conditions: pre-emerge, 14 days after application, scale 0-100
Outline: as §1

[6] = test system: lambsquarters (Chenopodium album, CHEAL); assay: as above; conditions: pre-emerge, 14 days after application, scale 0-100
Outline: as §1

[7] = test system: large crabgrass (Digitaria sanguinalis, DIGSA); assay: as above; conditions: pre-emerge, 14 days after application, scale 0-100
Outline: as §1

[8] = test system: sicklepod (Cassia obtusifolia, CASOB); assay: as above; conditions: pre-emerge, 14 days after application, scale 0-100
Outline: as §1

[9] = test system: velvetleaf (Abutilon theophrasti, ABUTH); assay: as above; conditions: pre-emerge, 14 days after application, scale 0-100
Outline: as §1

[10] = test system: field corn (Zea mays L., var. Dekalb 535, CORN); assay: Pre-emerge test, crop safety; conditions: pre-emerge, 14 days after application, scale 0-100
Outline: (§2)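 Visual ratings on a 0-100 scale (0 no damage, 100 all plants dead) were taken at 14 days after treatment. Rates of 15-1000 g ai/ha in acetone, 187 l/ha, were sprayed onto soil one day after planting (pre-emerge) or onto 2-3 leaf plants with 0.25% v/v surfactant (post-emerge).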

[11] = test system: upland rice (Oryza sp., var. Tebonnet, RICE); assay: Pre-emerge test, crop safety; conditions: pre-emerge, 14 days after application, scale 0-100
Outline: as §2

[12] = test system: barnyardgrass (Echinochloa crus-galli, ECHCG); assay: Post-emerge test, greenhouse herbicide activity screening; conditions: post-emerge, 14 days after application, rating scale 0-100
Outline: (§3)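 Compounds in acetone were track-sprayed at 187 l/ha, 15–1000 g ai/ha, onto sandy loam pots. Pre-emerge seeds were sown one day before spraying, with surface watering afterwards. Post-emerge plants were at the 2–3 leaf stage and sprayed with 0.25% v/v non-ionic surfactant. Injury was rated 0–100 at 14 days.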

[13] = test system: green foxtail (Setaria viridis, SETVI); assay: as above; conditions: post-emerge, 14 days after application, rating scale 0-100
Outline: as §3

[14] = test system: ivyleaf morningglory (Ipomoea hederacea, IPOHE); assay: as above; conditions: post-emerge, 14 days after application, rating scale 0-100
Outline: as §3

[15] = test system: johnsongrass (Sorghum halepense, SORHA); assay: as above; conditions: post-emerge, 14 days after application, rating scale 0-100
Outline: as §3

[16] = test system: lambsquarters (Chenopodium album, CHEAL); assay: as above; conditions: post-emerge, 14 days after application, rating scale 0-100
Outline: as §3

[17] = test system: large crabgrass (Digitaria sanguinalis, DIGSA); assay: as above; conditions: post-emerge, 14 days after application, rating scale 0-100
Outline: as §3

[18] = test system: redroot pigweed (Amaranthus retroflexus, AMARE); assay: as above; conditions: post-emerge, 14 days after application, rating scale 0-100
Outline: as §3

[19] = test system: sicklepod (Cassia obtusifolia, CASOB); assay: as above; conditions: post-emerge, 14 days after application, rating scale 0-100
Outline: as §3

[20] = test system: velvetleaf (Abutilon theophrasti, ABUTH); assay: as above; conditions: post-emerge, 14 days after application, rating scale 0-100
Outline: as §3

[21] = test system: field corn (Zea mays L., var. Dekalb 535, CORN); assay: Post-emerge test, crop safety; conditions: post-emerge, 14 days after application, rating scale 0-100
Outline: (§4)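 Each test used a mechanized track sprayer delivering 187 l/ha of acetone solution at 15–1000 g ai/ha. Post-emerge foliage at 2–3 leaves was treated with added 0.25% v/v non-ionic surfactant and bottom-watered only. Injury was assessed on day 14, where 100 means total kill.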

[22] = test system: upland rice (Oryza sp., var. Tebonnet, RICE); assay: Post-emerge test, crop safety; conditions: post-emerge, 14 days after application, rating scale 0-100
Outline: as §4

SMILES: COc1c(Br)cc(F)c(-n2c(=O)cc(C(F)(F)F)n(C)c2=O)c1N(C(=O)C=Cc1ccccc1)C(=O)C=Cc1ccccc1 [2-176]
- phytotoxicity rating AMARE ([1]; 63 g ai/ha): 50
- phytotoxicity rating AMARE ([1]; 250 g ai/ha): 90
- phytotoxicity rating ECHCG ([2]; 63 g ai/ha): 0
- phytotoxicity rating ECHCG ([2]; 250 g ai/ha): 0
- phytotoxicity rating SETVI ([3]; 63 g ai/ha): 0
- phytotoxicity rating SETVI ([3]; 250 g ai/ha): 20
- phytotoxicity rating IPOHE ([4]; 63 g ai/ha): 0
- phytotoxicity rating IPOHE ([4]; 250 g ai/ha): 40
- phytotoxicity rating SORHA ([5]; 63 g ai/ha): 0
- phytotoxicity rating SORHA ([5]; 250 g ai/ha): 0
- phytotoxicity rating CHEAL ([6]; 63 g ai/ha): 90
- phytotoxicity rating CHEAL ([6]; 250 g ai/ha): 100
- phytotoxicity rating DIGSA ([7]; 63 g ai/ha): 0
- phytotoxicity rating DIGSA ([7]; 250 g ai/ha): 20
- phytotoxicity rating CASOB ([8]; 63 g ai/ha): 0
- phytotoxicity rating CASOB ([8]; 250 g ai/ha): 0
- phytotoxicity rating ABUTH ([9]; 63 g ai/ha): 0
- phytotoxicity rating ABUTH ([9]; 250 g ai/ha): 70
- phytotoxicity rating CORN (crop damage) ([10]; 63 g ai/ha): 0
- phytotoxicity rating CORN (crop damage) ([10]; 250 g ai/ha): 0
- phytotoxicity rating RICE (crop damage) ([11]; 63 g ai/ha): 0
- phytotoxicity rating RICE (crop damage) ([11]; 250 g ai/ha): 0
- ECHCG phytotoxicity rating ([12]; 63 g ai/ha): 0
- ECHCG phytotoxicity rating ([12]; 250 g ai/ha): 0
- SETVI phytotoxicity rating ([13]; 63 g ai/ha): 0
- SETVI phytotoxicity rating ([13]; 250 g ai/ha): 0
- IPOHE phytotoxicity rating ([14]; 63 g ai/ha): 70
- IPOHE phytotoxicity rating ([14]; 250 g ai/ha): 95
- SORHA phytotoxicity rating ([15]; 63 g ai/ha): 0
- SORHA phytotoxicity rating ([15]; 250 g ai/ha): 0
- CHEAL phytotoxicity rating ([16]; 63 g ai/ha): 80
- CHEAL phytotoxicity rating ([16]; 250 g ai/ha): 90
- DIGSA phytotoxicity rating ([17]; 63 g ai/ha): 0
- DIGSA phytotoxicity rating ([17]; 250 g ai/ha): 0
- AMARE phytotoxicity rating ([18]; 63 g ai/ha): 100
- AMARE phytotoxicity rating ([18]; 250 g ai/ha): 100
- CASOB phytotoxicity rating ([19]; 63 g ai/ha): 10
- CASOB phytotoxicity rating ([19]; 250 g ai/ha): 30
- ABUTH phytotoxicity rating ([20]; 63 g ai/ha): 50
- ABUTH phytotoxicity rating ([20]; 250 g ai/ha): 90
- CORN phytotoxicity rating (crop damage) ([21]; 63 g ai/ha): 0
- CORN phytotoxicity rating (crop damage) ([21]; 250 g ai/ha): 5
- RICE phytotoxicity rating (crop damage) ([22]; 63 g ai/ha): 10
- RICE phytotoxicity rating (crop damage) ([22]; 250 g ai/ha): 30
